ChEMBL document CHEMBL3808324, “Promising Therapeutic Potential of P2X7 Modulators” (ACS Med Chem Lett, 2016)

Key:
[1] = biological target: T1, P2X purinoceptor 7 (Homo sapiens) (UniProt Q99572); assay: (§1) Antagonist activity against ATP-gated P2X7 receptor in LPS-stimulated human PBMC assessed as reduction in P2X7 agonist 2'(3')-O-(4-benzoylbenzoyl) adenosine 5'-triphosphate-induced IL-1beta at 10 uM incubated for 30 mins after 1 hr pre-treatment with LPS followed by Bz-ATP-stimulation for 1.5 hrs by ELISA; design: scale not given: the % may be the effect or the level left
T1 sequence (whole entry): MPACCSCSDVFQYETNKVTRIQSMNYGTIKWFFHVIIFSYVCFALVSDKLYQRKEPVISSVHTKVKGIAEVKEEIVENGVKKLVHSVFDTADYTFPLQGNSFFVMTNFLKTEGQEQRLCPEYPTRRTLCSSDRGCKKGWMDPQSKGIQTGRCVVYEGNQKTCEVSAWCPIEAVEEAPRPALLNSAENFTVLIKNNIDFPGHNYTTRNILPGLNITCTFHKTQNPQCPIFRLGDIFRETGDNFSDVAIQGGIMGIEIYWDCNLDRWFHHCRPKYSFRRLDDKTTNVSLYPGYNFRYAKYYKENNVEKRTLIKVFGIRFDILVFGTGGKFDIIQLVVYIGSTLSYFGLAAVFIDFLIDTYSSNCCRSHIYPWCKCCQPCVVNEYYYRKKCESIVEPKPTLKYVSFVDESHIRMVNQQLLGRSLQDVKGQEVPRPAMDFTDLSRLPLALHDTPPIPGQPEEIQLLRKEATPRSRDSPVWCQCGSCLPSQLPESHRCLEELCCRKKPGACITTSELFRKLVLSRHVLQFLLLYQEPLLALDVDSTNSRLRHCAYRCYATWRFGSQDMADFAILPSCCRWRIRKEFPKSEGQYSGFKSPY

P2X purinoceptor 7 = biological target: T2, P2X purinoceptor 7 (Rattus norvegicus, UniProt Q64663); assay: Antagonist activity against rat recombinant ATP-gated P2X7 receptor expressed in human 1321N1 cells assessed as reduction in BzATP -induced Ca2+ flux pre-incubated for 30 mins before BzATP addition by calcium-4 dye based FLIPR assay; assay type: cell-based
T2 sequence (Q64663 whole entry): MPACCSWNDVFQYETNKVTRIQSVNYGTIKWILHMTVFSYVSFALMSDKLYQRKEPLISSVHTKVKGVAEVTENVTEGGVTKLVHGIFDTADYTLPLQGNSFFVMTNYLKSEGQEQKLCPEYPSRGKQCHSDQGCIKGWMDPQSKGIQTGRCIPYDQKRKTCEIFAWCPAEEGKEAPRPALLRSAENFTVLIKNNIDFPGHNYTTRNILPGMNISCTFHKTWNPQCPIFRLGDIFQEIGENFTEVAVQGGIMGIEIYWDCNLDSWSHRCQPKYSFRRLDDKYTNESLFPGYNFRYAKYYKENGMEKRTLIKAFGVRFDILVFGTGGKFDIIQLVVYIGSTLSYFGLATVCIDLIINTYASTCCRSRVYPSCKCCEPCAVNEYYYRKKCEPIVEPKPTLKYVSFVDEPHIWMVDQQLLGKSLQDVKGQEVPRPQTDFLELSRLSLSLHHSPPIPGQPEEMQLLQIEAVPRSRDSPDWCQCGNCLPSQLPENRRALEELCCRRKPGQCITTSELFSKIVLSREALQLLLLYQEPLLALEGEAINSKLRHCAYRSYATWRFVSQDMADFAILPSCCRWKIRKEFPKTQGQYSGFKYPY

[2] = biological target: T1, P2X purinoceptor 7 (Homo sapiens); assay: as §1, with “1” for “10”; design: scale not given: the % may be the effect or the level left

Activity [1] | IC50 (P2X purinoceptor 7) | Activity [2] | SMILES
-6.1% |  |  | Cc1nc2c(c(-c3ccn[nH]3)n1)C[C@@H](C)N(C(=O)c1ccc(F)c(C(F)(F)F)c1Cl)C2 (single isomer, unassigned)
100% |  | 104% | Cc1nc2c(c(-c3c(C)noc3C)n1)CCN(C(=O)c1cccc(C(F)(F)F)c1Cl)C2
 |  | 26.9% | O=C(c1cccc(C(F)(F)F)c1Cl)N1CCc2c(ncnc2-c2ccccn2)C1

More lines, now with the values behind:

SMILES | Activity [1] | IC50 (P2X purinoceptor 7) | Activity [2]
COc1cccc(C(=O)N2Cc3nc(C)nc(-c4ccn[nH]4)c3CC2C)c1F (stereo not drawn) | 2% | 1460 nM | 
O=C(c1cccc(Cl)c1Cl)N1CCc2c(ncnc2-n2nccn2)C1 |  |  | 71.8%
O=C(c1cccc(Cl)c1Cl)N1CCc2c(ncnc2-c2ccn[nH]2)C1 |  |  | 14.2%
